Values after ≈ are worked out from the molar mass of the structure shown.

Assay [1] has as its target A. baumannii PBP2 (Acinetobacter baumannii, UniProt D0C8Z9). Nature of the assay: Bocillin-FL competition binding via gel filtration, A. baumannii PBP2. In a few lines: (§1)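 Competitive equilibrium binding with Bocillin-FL reporter: PBP pre-incubated with inhibitor dilutions, Bocillin-FL added, 15 min incubation. Labelled enzyme isolated by size-exclusion spin plates, fluorescence measured; EC50 obtained by fitting bound fraction against inhibitor concentration with a Hill-coefficient model.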

Assay [2] concerns the target T1, A. baumannii PBP1a (Acinetobacter baumannii, UniProt A0ABX6CK30).
T1 sequence (A0ABX6CK30 1-851): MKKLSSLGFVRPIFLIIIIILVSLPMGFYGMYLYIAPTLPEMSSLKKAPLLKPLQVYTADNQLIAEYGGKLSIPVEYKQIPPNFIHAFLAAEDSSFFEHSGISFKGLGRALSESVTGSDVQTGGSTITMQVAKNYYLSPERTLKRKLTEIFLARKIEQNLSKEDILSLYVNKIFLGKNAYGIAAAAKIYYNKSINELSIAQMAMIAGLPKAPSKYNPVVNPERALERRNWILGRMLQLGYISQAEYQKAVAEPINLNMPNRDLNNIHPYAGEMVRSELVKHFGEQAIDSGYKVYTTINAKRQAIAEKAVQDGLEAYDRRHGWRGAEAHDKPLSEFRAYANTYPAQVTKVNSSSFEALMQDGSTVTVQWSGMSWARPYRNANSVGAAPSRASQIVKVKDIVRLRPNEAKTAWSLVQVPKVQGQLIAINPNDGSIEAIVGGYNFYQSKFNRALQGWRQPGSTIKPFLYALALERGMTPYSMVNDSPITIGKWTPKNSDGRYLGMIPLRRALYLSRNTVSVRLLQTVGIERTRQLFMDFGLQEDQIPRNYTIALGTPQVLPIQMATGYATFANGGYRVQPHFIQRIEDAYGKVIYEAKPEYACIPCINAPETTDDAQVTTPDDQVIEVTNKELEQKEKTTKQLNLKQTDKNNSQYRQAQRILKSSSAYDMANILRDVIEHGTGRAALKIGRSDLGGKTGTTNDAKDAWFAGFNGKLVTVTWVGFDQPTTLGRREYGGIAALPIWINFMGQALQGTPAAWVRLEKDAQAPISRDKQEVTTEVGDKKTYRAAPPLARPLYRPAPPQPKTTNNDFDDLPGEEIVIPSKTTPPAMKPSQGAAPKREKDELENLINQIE
Nature of the assay: Bocillin-FL competition binding via gel filtration, A. baumannii PBP1a. The settings on record: competition binding assay using Bocillin-FL via gel filtration; read-out: A. baumannii PBP1a Potency. Put shortly: as §1
A general note: Size exclusion chromatography separates by hydrodynamic size, large species first.

The test system of assay [3] is A. baumannii ATCC 19606. Nature of the assay: microbe, parasite or virus in culture. The assay is classed as cell-based. The settings on record: Acinetobacter baumannii, ATCC19606, read-out: MIC, A. baumannii ATCC 19606.
In assay [4] the test system is A. baumannii CDC-0036. Kind of assay: microbe, parasite or virus in culture. The assay is classed as cell-based. The settings on record: Acinetobacter baumannii, CDC0036, read-out: MIC, A. baumannii CDC-0036.
Assay [5] relates to P. aeruginosa CDC-0110. Nature of the assay: microbe, parasite or virus in culture. The assay is classed as cell-based. The settings on record: Pseudomonas aeruginosa, CDC0110, read-out: Minimum inhibitory concentration, P. aeruginosa CDC-0110.

Chain of A. baumannii PBP2 (D0C8Z9 whole entry): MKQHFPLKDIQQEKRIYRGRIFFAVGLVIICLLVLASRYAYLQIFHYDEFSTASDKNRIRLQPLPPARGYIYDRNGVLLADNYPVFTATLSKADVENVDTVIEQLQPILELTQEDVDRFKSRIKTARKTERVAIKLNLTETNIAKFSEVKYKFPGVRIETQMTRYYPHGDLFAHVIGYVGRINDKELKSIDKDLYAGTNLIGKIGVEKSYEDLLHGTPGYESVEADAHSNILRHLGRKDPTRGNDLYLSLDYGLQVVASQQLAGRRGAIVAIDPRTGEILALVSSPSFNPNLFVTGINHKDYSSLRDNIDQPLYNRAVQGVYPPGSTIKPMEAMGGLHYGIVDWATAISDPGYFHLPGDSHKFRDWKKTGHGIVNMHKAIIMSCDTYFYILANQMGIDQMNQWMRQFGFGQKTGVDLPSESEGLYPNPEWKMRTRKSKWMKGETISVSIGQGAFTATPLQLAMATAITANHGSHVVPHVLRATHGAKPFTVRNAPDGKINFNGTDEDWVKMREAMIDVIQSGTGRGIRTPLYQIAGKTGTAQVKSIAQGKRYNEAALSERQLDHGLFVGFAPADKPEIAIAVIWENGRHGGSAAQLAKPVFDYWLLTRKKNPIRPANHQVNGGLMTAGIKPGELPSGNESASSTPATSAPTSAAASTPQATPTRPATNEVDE

Turning to `O=C(NCCCN1CCN(C(=O)N[C@@H](C(=O)N[C@H]2Cc3ccc(F)c(C(=O)O)c3OB2O)c2cc(F)c(O)c(O)c2Cl)C(=O)C1=O)c1cc(F)c(O)c(F)c1` [Example 422, (R)-3-((R)-2-(2-chloro-5-fluoro-3,4-dihydroxyphenyl)-2-(4-(3-(3,5-difluoro-4-hydroxybenzamido)propyl)-2,3-dioxopiperazine-1-carboxamido)acetamido)-7-fluoro-2-hydroxy-3,4-dihydro-2H-benzo[e][1,2]oxaborinine-8-carboxylic acid], the EC50 in assay [1] and in assay [2] was less than 10 µM each time. The MIC is less than 1 µg/mL in assay [3], 2 to 4 µg/mL (≈ 2.51 to 5.03 µM) in assay [4] and less than 1 µg/mL in assay [5].

As to `O=C(NCCCN1CCN(C(=O)NC(C(=O)N[C@H]2Cc3ccc(F)c(C(=O)O)c3OB2O)c2cc(F)c(O)c(O)c2Cl)C(=O)C1=O)c1cc(O)cc(O)c1` (stereo partly drawn) [Example 423, (3R)-3-(2-(2-chloro-5-fluoro-3,4-dihydroxyphenyl)-2-(4-(3-(3,5-dihydroxybenzamido)propyl)-2,3-dioxopiperazine-1-carboxamido)acetamido)-7-fluoro-2-hydroxy-3,4-dihydro-2H-benzo[e][1,2]oxaborinine-8-carboxylic acid], the EC50 in assay [1] and in assay [2] was less than 10 µM throughout. For the same compound, the MIC is less than 1 µg/mL in assay [3], 2 to 4 µg/mL (≈ 2.58 to 5.16 µM) in assay [4] and less than 1 µg/mL in assay [5].

On to `O=C(O)c1c(F)ccc2c1OB(O)[C@@H](NC(=O)C(NC(=O)N1CCN(C3CCN(C(=O)Nc4cccc(O)c4)CC3)C(=O)C1=O)c1cc(F)c(O)c(O)c1Cl)C2` (stereo partly drawn) [Example 424, (3R)-3-(2-(2-chloro-5-fluoro-3,4-dihydroxyphenyl)-2-(4-(1-((3-hydroxyphenyl)carbamoyl)piperidin-4-yl)-2,3-dioxopiperazine-1-carboxamido)acetamido)-7-fluoro-2-hydroxy-3,4-dihydro-2H-benzo[e][1,2]oxaborinine-8-carboxylic acid], for which the EC50 in assay [1] and in assay [2] was less than 10 µM throughout. For the same compound, the MIC in assay [3], in assay [4] and in assay [5] was less than 1 µg/mL in each case.

On to `O=C(O)c1c(F)ccc2c1OB(O)[C@@H](NC(=O)C(NC(=O)N1CCN(C3CCN(C(=O)c4cncc(O)c4)CC3)C(=O)C1=O)c1cc(F)c(O)c(O)c1Cl)C2` (stereo partly drawn) [Example 425, (3R)-3-(2-(2-chloro-5-fluoro-3,4-dihydroxyphenyl)-2-(4-(1-(5-hydroxynicotinoyl)piperidin-4-yl)-2,3-dioxopiperazine-1-carboxamido)acetamido)-7-fluoro-2-hydroxy-3,4-dihydro-2H-benzo[e][1,2]oxaborinine-8-carboxylic acid], for which the EC50 in assay [1] and in assay [2] was 10 to 50 µM in each case. Also, the MIC in assay [3], in assay [4] and in assay [5] was less than 1 µg/mL each time.

In the case of `O=C(O)c1c(F)ccc2c1OB(O)[C@@H](NC(=O)C(NC(=O)N1CCN(C3CCN(C(=O)c4ccc(O)cc4)CC3)C(=O)C1=O)c1cc(F)c(O)c(O)c1Cl)C2` (stereo partly drawn) [Example 427, (3R)-3-(2-(2-chloro-5-fluoro-3,4-dihydroxyphenyl)-2-(4-(1-(4-hydroxybenzoyl)piperidin-4-yl)-2,3-dioxopiperazine-1-carboxamido)acetamido)-7-fluoro-2-hydroxy-3,4-dihydro-2H-benzo[e][1,2]oxaborinine-8-carboxylic acid], the EC50 in assay [1] and in assay [2] was less than 10 µM each time. Moreover, the MIC in assay [3], in assay [4] and in assay [5] was less than 1 µg/mL throughout.

Take `O=C(O)c1c(F)ccc2c1OB(O)[C@@H](NC(=O)C(NC(=O)N1CCN(C3CCN(S(=O)(=O)c4cccc(O)c4)CC3)C(=O)C1=O)c1cc(F)c(O)c(O)c1Cl)C2` (stereo partly drawn) [Example 428, (3R)-3-(2-(2-chloro-5-fluoro-3,4-dihydroxyphenyl)-2-(4-(1-((3-hydroxyphenyl)sulfonyl)piperidin-4-yl)-2,3-dioxopiperazine-1-carboxamido)acetamido)-7-fluoro-2-hydroxy-3,4-dihydro-2H-benzo[e][1,2]oxaborinine-8-carboxylic acid]: the EC50 in assay [1] and in assay [2] was less than 10 µM each time. The results for the MIC in assay [3], in assay [4] and in assay [5] were less than 1 µg/mL, 2 to 4 µg/mL (≈ 2.43 to 4.87 µM) and less than 1 µg/mL, respectively.

On to `O=C(O)c1c(F)ccc2c1OB(O)[C@@H](NC(=O)C(NC(=O)N1CCN(C3CCN(S(=O)(=O)c4ccc(O)cc4)CC3)C(=O)C1=O)c1cc(F)c(O)c(O)c1Cl)C2` (stereo partly drawn) [Example 429, (3R)-3-(2-(2-chloro-5-fluoro-3,4-dihydroxyphenyl)-2-(4-(1-((4-hydroxyphenyl)sulfonyl)piperidin-4-yl)-2,3-dioxopiperazine-1-carboxamido)acetamido)-7-fluoro-2-hydroxy-3,4-dihydro-2H-benzo[e][1,2]oxaborinine-8-carboxylic acid], for which the EC50 in assay [1] and in assay [2] was less than 10 µM throughout. The MIC in assay [3] is less than 1 µg/mL; in assay [4] it was 2 to 4 µg/mL (≈ 2.43 to 4.87 µM); in assay [5] it was less than 1 µg/mL.

As for `O=C(O)c1c(F)ccc2c1OB(O)[C@@H](NC(=O)C(NC(=O)N1CCN(C3CCN(C(=O)Cc4cccc(O)c4)CC3)C(=O)C1=O)c1cc(F)c(O)c(O)c1Cl)C2` (stereo partly drawn) [Example 474, (3R)-3-(2-(2-chloro-5-fluoro-3,4-dihydroxyphenyl)-2-(4-(1-(2-(3-hydroxyphenyl)acetyl)piperidin-4-yl)-2,3-dioxopiperazine-1-carboxamido)acetamido)-7-fluoro-2-hydroxy-3,4-dihydro-2H-benzo[e][1,2]oxaborinine-8-carboxylic acid], the results for the EC50 in assay [1] and in assay [2] were less than 10 µM and 10 to 50 µM, respectively. The MIC in assay [3], in assay [4] and in assay [5] was less than 1 µg/mL throughout.

`O=C(O)c1c(F)ccc2c1OB(O)[C@@H](NC(=O)C(NC(=O)N1CCN(CC3CCN(C(=O)c4cccc(O)c4)CC3)C(=O)C1=O)c1cc(F)c(O)c(O)c1Cl)C2` (stereo partly drawn) [Example 475, (3R)-3-(2-(2-chloro-5-fluoro-3,4-dihydroxyphenyl)-2-(4-((1-(3-hydroxybenzoyl)piperidin-4-yl)methyl)-2,3-dioxopiperazine-1-carboxamido)acetamido)-7-fluoro-2-hydroxy-3,4-dihydro-2H-benzo[e][1,2]oxaborinine-8-carboxylic acid]: the EC50 in assay [1] was less than 10 µM; in assay [2], 10 to 50 µM. Besides, the figures for the MIC in assay [3], in assay [4] and in assay [5] were less than 1 µg/mL, 2 to 4 µg/mL (≈ 2.5 to 5 µM) and less than 1 µg/mL, respectively.

Turning to `O=C(O)c1c(F)ccc2c1OB(O)[C@@H](NC(=O)C(NC(=O)N1CCN(C3CCN(C(=O)c4ccc(O)cc4O)CC3)C(=O)C1=O)c1cc(F)c(O)c(O)c1Cl)C2` (stereo partly drawn) [Example 476, (3R)-3-(2-(2-chloro-5-fluoro-3,4-dihydroxyphenyl)-2-(4-(1-(2,4-dihydroxybenzoyl)piperidin-4-yl)-2,3-dioxopiperazine-1-carboxamido)acetamido)-7-fluoro-2-hydroxy-3,4-dihydro-2H-benzo[e][1,2]oxaborinine-8-carboxylic acid], the EC50 in assay [1] was less than 10 µM; in assay [2] it was 10 to 50 µM. Further, the MIC in assay [3], in assay [4] and in assay [5] was less than 1 µg/mL throughout.

With `O=C(O)c1c(F)ccc2c1OB(O)[C@@H](NC(=O)C(NC(=O)N1CCN(CC3CCN(C(=O)Nc4cccc(O)c4)CC3)C(=O)C1=O)c1cc(F)c(O)c(O)c1Cl)C2` (stereo partly drawn) [Example 477, (3R)-3-(2-(2-chloro-5-fluoro-3,4-dihydroxyphenyl)-2-(4-((1-((3-hydroxyphenyl)carbamoyl)piperidin-4-yl)methyl)-2,3-dioxopiperazine-1-carboxamido)acetamido)-7-fluoro-2-hydroxy-3,4-dihydro-2H-benzo[e][1,2]oxaborinine-8-carboxylic acid], the EC50 in assay [1] was less than 10 µM; in assay [2], 10 to 50 µM. Further, the MIC in assay [3] was less than 1 µg/mL; in assay [4], 2 to 4 µg/mL (≈ 2.45 to 4.91 µM); in assay [5], less than 1 µg/mL.

These data come from patent publication US20240270762A1, “PENICILLIN-BINDING PROTEIN INHIBITORS” (priority 2021, published 2024).
